Data published in US4603123A, “Compounds having antiinflammatory activity, obtained by complexation of piroxican with β-cyclodextrin, and pharmaceutical compositions containing them” (priority 1984, dated 1986).
In brackets after ≈: the same amount, converted by molar mass. Like-named read-outs stand apart in the source and are kept apart here.

Experiments:
[1] = tested on: carrageenin induced oedema; experiment: Carrageenin induced oedema test in rats (antiinflammatory activity); format: in vivo, male Crl:CD(SD) rats; conditions: oral, rat
Method: The antiinflammatory activity was determined by means of the carrageenin induced oedema test, according to the methodology reported by C. A. Winter et al in Proc. Soc. Exptl. […] As the test animals, male Crl:CD(SD) rats, weighing 150-170 g, were employed. The animals were housed under standard conditions and fastened for 18 hours before the beginning of the experiment. Water was available ad libitum.
The obtained results were expressed both as ED50 values, determined in correspondence of the activity peak on the regression line log. of the dosage-% inhibition of the oedema, and as ED30 values, calculated on the regression lines log. of the dosage-% inhibition of the oedema over the controls, determined as the mean value of AUC (area under Curve representing the development of the paw volume in the time).
In addition, it was determined the kinetic of the activity of the two formulations under investigation, by calculating the ED30 values at 2, 3, 4 and 6 hours since the carrageenin injection.

[2] = Gastrolesive action in rats and therapeutic index UD0/ED30; conditions: in vivo, rat
Method: The gastrolesive action was tested on rats fastened for 18 hours, through macroscopical examination of the gastric mucosa, 5 hours after the administration of the substances under investigation. For each treatment, the regression lines log. of the dosage-mm of ulceration (single values for each animal) were determined. These lines allowed to calculate, for each compound, the UD0 values i.e., the maximum dosages at which no lesions are observed.
Finally, it was also determined the therapeutic index of the new compound piroxicam/β-cyclodextrin, in comparison with piroxicam. Said index was expressed as the ratio UD0 /ED30 wherein UD0 and ED30 are as above defined.

[3] = Plasma kinetics of piroxicam in the dog after oral administration; set-up: species or system Beagle dogs; conditions: in vivo, 10 mg/kg of active ingredient
Method: The dogs were kept at constant temperature and fastened at least for 17 hours before the beginning of the experiment. Water was available ad libitum.
The two substances to be investigated were orally administered at a dosage corresponding to 10 mg/kg of active ingredient, according to a crossover scheme. The determination of the plasma concentrations of the active ingredient, at a different time intervals since the administration, was carried out by High Pressure Liquid Chromatography (HPLC).

[4] = tested on: gastrointestinal mucosa; conditions: background; cited from earlier work
[5] = background; cited from earlier work
[6] = Plasma kinetics of piroxicam in the rabbit after oral administration; format: in vivo, male New Zealand White rabbits
Method: For these investigations, male New Zealand White rabbits, weighing 2.5-3.0 kg were employed. The animals were kept at constant temperature and fastened for the 17 hours preceeding the experiments. Water was given ad libitum. […] The determination of the plasma levels of the active principle, at the different times since the administration, was carried out by High Pressure Liquid Chromatography (HPLC).

[7] = tested on: phenylquinone induced writhing; experiment: Phenylquinone induced writhing test (kinetic of the analgesic activity); format: in vivo, female NMRI mice; conditions: mouse, oral, 0.5 mg/kg of active substance
Method: The employed experimental model is a slight modification of that described by Siegmund, J. Pharm. Exptl. Ther., 119, 184, 1957.
Female NMRI mice, housed under standard conditions, fastened for 18 hours, were employed as the test animals. Water was available ad libitum.
The compounds under study were orally administered by oesophageal gavage, suspended in an aqueous solution containing 0.5% of carboxymethylcellulose, at a concentration corresponding to 0.5 mg/kg of active substance (piroxicam).

[8] = Dissolution test in water, Dissolution Tester, 25° C.
Method: 7.5 Grams of piroxicam/β-cyclodextrin were poured into 150 ml of water at 25° C. under stirring. At predetermined time intervals, samples of 5 ml of suspension were collected and filtered through 0.2μ. […] were diluted 1 to 500 with 0.1 N NaOH in methanol immediately after the filtration. The whole was again filtered through paper.
The amount of piroxicam in the solution was spectrophotometrically determined at 358 nm against a solution of 0.1 N NaOH in methanol.

[9] = plasma, 10 mg/kg of active ingredient, mean

Compound: CN1C(C(=O)Nc2ccccn2)=C(O)c2ccccc2S1(=O)=O [Piroxicam, 4-hydroxy-2-methyl-N-2-pyridyl-2H-1,2-benzothiazine-3-carboxamide-1,1-dioxide]
- ED30 ([1]; Rat2, 2 h since carrageenin injection, read-out: ED30 at 2 h): 0.6 mg/kg
- ED30 ([1]; 3 h since carrageenin injection, read-out: ED30 at 3 h): 1.6 mg/kg
- ED30 ([1]; 4 h since carrageenin injection, read-out: ED30 at 4 h): 3.1 mg/kg
- ED30 ([1]; 6 h since carrageenin injection, read-out: ED30 at 6 h): 9.7 mg/kg
- ED30 ([1]; AUC of paw volume in time, dosage as piroxicam, read-out: Activity on AUC ED30): 2.5 mg/kg
- ED50 ([1]; at the activity peak, dosage as piroxicam): 2.3 mg/kg
- NOAEL at 5 h ([2]; 5 hours after administration, dosage as piroxicam, read-out: Gastrolesive activity UD0 (maximum dosage at which no lesions are observed)): 1.1 mg/kg
- selectivity ratio ([2]; piroxicam = 1, read-out: Relative therapeutic index): 1
- selectivity ratio ([2]; read-out: Absolute therapeutic index (UD0/ED30)): 0.44
- Tmax [3]: 1.8 h
- concentration at 0.25 h ([3]; 0.25 h, mean): 1000 ng/mL
- concentration at 0.5 h ([3]; 0.50 h, mean): 2800 ng/mL
- concentration at 1 h ([3]; 1 h, mean): 12700 ng/mL
- concentration at 2 h ([3]; 2 h, mean): 19400 ng/mL
- concentration at 4 h ([3]; 4 h, mean): 18900 ng/mL
- concentration at 8 h ([3]; 8 h, mean): 14200 ng/mL
- concentration at 24 h ([3]; 24 h, mean): 11500 ng/mL
- concentration at 48 h ([3]; 48 h, mean): 9200 ng/mL
- concentration at 72 h ([3]; 72 h, mean): 3000 ng/mL
- AUC(0-t) at 2 h ([3]; mean): 20400 ng·h/mL
- AUC(0-t) at 72 h ([3]; mean): 724000 ng·h/mL
- Cmax ([3]; mean): 20000 ng/mL
- effects on the gastrointestinal mucosa [4]: responsible of lesive effects on the gastrointestinal mucosa
- solubility in water [5]: practically insoluble in water
- bioavailability [6]: almost complete bioavailability
- Tmax ([6]; plasma, 10 mg/kg of active ingredient): 2.3 h
- concentration at 0.5 h ([6]; plasma, 10 mg/kg of active ingredient, 0.50 h, mean): 4300 ng/mL
- concentration at 1 h ([6]; plasma, 10 mg/kg of active ingredient, 1 h, mean): 7400 ng/mL
- concentration at 2 h ([6]; plasma, 10 mg/kg of active ingredient, 2 h, mean): 10900 ng/mL
- concentration at 4 h ([6]; plasma, 10 mg/kg of active ingredient, 4 h, mean): 10100 ng/mL
- concentration at 8 h ([6]; plasma, 10 mg/kg of active ingredient, 8 h, mean): 6500 ng/mL
- concentration at 24 h ([6]; plasma, 10 mg/kg of active ingredient, 24 h, mean): 300 ng/mL
- AUC(0-t) at 2 h [6, 9]: 13200 ng·h/mL
- AUC(0-t) at 24 h [6, 9]: 121000 ng·h/mL
- Cmax [6, 9]: 11700 ng/mL
- time of the activity peak (analgesic) [7]: 20 min
- percentage of the maximum evidenced inhibition (writhing) at 5 minutes ([7]; 5 minutes after the administration): 78%
- solubility at 0.5 h [8]: 111 µg/mL (≈ 335 µM)
